Consider 18 compounds from ChEMBL document CHEMBL1152783, “Octahydrophenanthrene-2,7-diol analogues as dissociated glucocorticoid receptor agonists: discovery and lead exploration” (J Med Chem, 2009).

SMILES strings stand for the structures.

Experiment [1] deals with T1, Glucocorticoid receptor (Homo sapiens, UniProt P04150).
T1 sequence (P04150 whole entry): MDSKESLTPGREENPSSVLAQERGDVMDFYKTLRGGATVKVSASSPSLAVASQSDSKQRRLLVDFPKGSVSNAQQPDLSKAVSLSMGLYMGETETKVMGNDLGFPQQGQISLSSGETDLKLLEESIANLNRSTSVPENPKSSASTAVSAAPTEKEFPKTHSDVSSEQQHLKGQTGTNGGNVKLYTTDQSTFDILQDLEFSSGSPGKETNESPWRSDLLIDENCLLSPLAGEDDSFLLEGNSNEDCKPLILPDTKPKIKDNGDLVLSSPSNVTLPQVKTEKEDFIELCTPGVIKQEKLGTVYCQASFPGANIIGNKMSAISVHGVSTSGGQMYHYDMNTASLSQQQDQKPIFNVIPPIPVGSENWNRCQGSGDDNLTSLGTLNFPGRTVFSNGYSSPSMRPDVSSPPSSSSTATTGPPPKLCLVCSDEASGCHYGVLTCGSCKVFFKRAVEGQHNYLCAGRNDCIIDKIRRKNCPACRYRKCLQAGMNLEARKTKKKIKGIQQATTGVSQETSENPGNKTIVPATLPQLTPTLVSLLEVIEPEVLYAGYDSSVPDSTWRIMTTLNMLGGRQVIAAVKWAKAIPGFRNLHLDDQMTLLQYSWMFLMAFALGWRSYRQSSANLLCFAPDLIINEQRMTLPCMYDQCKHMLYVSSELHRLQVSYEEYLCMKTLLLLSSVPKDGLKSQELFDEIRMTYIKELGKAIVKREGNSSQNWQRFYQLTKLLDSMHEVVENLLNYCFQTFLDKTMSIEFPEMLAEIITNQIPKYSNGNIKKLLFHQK
Nature of the experiment: Binding affinity to human glucocorticoid receptor.

Another experiment deals with T2, Estrogen receptor (Homo sapiens, UniProt P03372).
T2 sequence (P03372 whole entry): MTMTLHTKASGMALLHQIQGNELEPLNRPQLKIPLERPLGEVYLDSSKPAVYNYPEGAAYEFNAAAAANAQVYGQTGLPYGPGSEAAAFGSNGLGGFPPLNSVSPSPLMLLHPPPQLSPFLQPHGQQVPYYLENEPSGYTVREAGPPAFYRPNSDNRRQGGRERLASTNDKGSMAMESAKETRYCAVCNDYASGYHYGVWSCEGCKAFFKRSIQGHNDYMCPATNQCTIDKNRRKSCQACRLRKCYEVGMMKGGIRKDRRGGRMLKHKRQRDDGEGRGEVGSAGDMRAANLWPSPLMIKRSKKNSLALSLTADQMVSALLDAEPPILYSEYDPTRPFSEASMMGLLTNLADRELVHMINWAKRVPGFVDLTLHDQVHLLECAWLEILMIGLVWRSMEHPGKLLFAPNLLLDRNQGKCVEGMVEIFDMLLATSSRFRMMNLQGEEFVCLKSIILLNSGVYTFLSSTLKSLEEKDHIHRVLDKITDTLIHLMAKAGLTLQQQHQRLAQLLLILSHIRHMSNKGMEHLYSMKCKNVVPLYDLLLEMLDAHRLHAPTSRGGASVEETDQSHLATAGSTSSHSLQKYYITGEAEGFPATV
Kind of experiment: Binding affinity to human ERalpha.

Experiment [2] deals with T1, Glucocorticoid receptor. Nature of the experiment: Transrepression activity at GR in human SW1353 cells assessed as inhibition of IL1-stimulated MMP13 production after 24 hrs by whole cell ELISA. The format is cell-based. (In general: In an ELISA, binding on a coated surface is turned into a signal by an enzyme label.)
For the next experiment, the target named is T3, Progesterone receptor (Homo sapiens, UniProt P06401).
T3 sequence (P06401 whole entry): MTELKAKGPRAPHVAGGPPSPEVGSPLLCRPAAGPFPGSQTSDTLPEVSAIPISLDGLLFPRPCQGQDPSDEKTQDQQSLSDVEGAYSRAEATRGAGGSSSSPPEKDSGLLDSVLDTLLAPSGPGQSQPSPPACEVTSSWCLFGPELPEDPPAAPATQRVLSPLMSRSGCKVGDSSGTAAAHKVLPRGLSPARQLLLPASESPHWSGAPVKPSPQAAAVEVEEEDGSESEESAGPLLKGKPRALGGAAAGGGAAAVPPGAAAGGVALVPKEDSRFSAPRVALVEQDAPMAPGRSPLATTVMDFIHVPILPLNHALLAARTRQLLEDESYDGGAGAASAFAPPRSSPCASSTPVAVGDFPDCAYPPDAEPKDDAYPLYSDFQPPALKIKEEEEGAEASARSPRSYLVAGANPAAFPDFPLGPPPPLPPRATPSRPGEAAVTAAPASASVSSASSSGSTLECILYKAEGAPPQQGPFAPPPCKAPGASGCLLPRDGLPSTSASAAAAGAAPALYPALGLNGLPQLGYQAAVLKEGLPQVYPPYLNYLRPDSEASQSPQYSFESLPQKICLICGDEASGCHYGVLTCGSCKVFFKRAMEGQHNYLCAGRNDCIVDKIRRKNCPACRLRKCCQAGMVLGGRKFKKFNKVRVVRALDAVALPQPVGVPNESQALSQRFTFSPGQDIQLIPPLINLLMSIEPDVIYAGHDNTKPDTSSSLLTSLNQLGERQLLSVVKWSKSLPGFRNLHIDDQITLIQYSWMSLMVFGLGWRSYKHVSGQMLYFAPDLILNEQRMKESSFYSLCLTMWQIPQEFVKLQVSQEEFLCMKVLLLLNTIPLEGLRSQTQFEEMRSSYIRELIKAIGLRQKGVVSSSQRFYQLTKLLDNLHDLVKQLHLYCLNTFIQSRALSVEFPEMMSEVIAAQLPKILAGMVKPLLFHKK
Kind of experiment: Binding affinity to human progesterone receptor.

In another experiment the target is Estrogen receptor beta (Homo sapiens, UniProt Q92731). Nature of the experiment: Binding affinity to human ERbeta.
In a further experiment the target is T4, Androgen receptor (Homo sapiens, UniProt P10275).
T4 sequence (P10275 whole entry): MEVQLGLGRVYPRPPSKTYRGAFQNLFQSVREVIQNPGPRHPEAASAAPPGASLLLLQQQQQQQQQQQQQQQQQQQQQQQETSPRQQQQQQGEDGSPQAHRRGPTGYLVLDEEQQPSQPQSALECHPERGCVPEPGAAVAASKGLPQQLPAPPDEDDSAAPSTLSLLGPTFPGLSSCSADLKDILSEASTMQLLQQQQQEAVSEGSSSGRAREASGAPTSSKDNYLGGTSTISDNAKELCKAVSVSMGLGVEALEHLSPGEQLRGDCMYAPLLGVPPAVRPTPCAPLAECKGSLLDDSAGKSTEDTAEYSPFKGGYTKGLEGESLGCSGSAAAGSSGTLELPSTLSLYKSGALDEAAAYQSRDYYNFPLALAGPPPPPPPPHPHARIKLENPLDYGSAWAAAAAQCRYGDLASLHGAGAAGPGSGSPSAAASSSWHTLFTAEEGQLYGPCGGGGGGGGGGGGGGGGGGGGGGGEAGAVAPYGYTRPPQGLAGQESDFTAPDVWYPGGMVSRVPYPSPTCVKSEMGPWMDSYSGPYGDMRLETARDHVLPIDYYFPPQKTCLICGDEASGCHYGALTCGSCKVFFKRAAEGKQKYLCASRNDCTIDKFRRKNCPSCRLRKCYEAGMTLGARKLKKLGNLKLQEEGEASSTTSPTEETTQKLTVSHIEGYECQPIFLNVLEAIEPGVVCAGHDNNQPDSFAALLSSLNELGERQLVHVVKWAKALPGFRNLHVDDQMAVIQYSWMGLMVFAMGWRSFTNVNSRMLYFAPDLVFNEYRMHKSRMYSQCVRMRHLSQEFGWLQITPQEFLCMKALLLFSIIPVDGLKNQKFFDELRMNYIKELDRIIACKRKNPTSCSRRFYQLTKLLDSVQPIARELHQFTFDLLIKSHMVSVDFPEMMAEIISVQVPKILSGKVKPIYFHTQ
Nature of the experiment: Binding affinity to human androgen receptor.

Experiment [3] deals with T1, Glucocorticoid receptor. Kind of experiment: Transrepression activity at GR in human SW1353 cells assessed as suppression of NFkappaB-induced IL8 production. In kind it is cell-based.

Chain of Estrogen receptor beta (Q92731 whole entry): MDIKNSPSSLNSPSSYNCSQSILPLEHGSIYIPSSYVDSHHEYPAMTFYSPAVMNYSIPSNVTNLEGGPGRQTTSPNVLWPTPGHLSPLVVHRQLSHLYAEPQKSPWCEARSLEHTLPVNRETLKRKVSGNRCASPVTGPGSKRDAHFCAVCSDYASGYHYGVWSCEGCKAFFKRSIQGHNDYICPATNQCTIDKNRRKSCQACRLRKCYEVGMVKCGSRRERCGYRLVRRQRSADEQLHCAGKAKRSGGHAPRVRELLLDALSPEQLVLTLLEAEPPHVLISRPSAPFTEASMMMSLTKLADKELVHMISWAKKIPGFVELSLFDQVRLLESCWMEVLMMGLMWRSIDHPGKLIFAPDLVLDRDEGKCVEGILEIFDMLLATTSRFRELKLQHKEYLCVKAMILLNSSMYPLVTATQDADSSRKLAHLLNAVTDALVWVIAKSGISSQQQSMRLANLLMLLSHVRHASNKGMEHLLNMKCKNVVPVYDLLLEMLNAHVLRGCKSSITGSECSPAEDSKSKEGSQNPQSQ

One may read the IC50 as the concentration that gives 50% inhibition. With `CC#C[C@]1(O)C[C@H]2CCc3cc(O)ccc3[C@]2(CC)C[C@@H]1O`, the 50% inhibitory concentration (IC50) on Glucocorticoid receptor [1] was 35 nM; at Estrogen receptor it was over 10000 nM; on Glucocorticoid receptor [2], 63 nM; on Progesterone receptor, over 10000 nM; at Estrogen receptor beta, over 10000 nM; at Androgen receptor, over 10000 nM.
Turning to `CC[C@@]12C[C@@H](O)[C@](O)(c3ccccc3)C[C@H]1CCc1cc(O)ccc12`, the IC50 at Glucocorticoid receptor [1] is 3.8 nM; on Glucocorticoid receptor [2], 5000 nM.
The matching figures for `CC[C@@]12CC[C@](O)(c3ccccc3)C[C@H]1CCc1cc(O)ccc12`: 21 nM and over 5000 nM.
`C=CCC12CC[C@](O)(C#CC)C[C@H]1CCc1cc(O)ccc12` (single isomer, unassigned): the IC50 is 6.2 nM at Glucocorticoid receptor [1]; 93 nM on Estrogen receptor; 14 nM at Glucocorticoid receptor [2]; 1100 nM on Progesterone receptor; 250 nM at Estrogen receptor beta; over 1000 nM on Androgen receptor. The IC50 on Glucocorticoid receptor [3] stood at 34 nM.
Take `CC#C[C@@]1(O)CC[C@@]2(C)c3ccc(O)cc3CC[C@@H]2C1`: the figures for the IC50 on Glucocorticoid receptor [1] and on Glucocorticoid receptor [2] were 17 nM and over 5000 nM, respectively.
Take `CC#C[C@@]1(O)CC[C@@]2(CC)c3ccc(OCc4ccncc4)cc3CC[C@@H]2C1`: the 50% inhibitory concentration (IC50) was determined as 3 nM at Glucocorticoid receptor [1], 670 nM on Estrogen receptor, 31 nM on Glucocorticoid receptor [2] and 3500 nM on Estrogen receptor beta.
As for `CC#C[C@@]1(O)CC[C@@]2(/C=C/C)c3ccc(O)cc3CC[C@@H]2C1`, the concentration for half-maximal inhibition (IC50) at Glucocorticoid receptor [1] is 3.5 nM; on Glucocorticoid receptor [2], over 5000 nM.
As for `CC[C@@]12C[C@H](O)[C@](O)(c3ccccc3)C[C@H]1CCc1cc(O)ccc12`, the IC50 was 2.5 nM at Glucocorticoid receptor [1]; 3400 nM at Estrogen receptor; 140 nM at Glucocorticoid receptor [2]; 750 nM at Progesterone receptor; 660 nM at Estrogen receptor beta; over 10000 nM on Androgen receptor.
With `CC[C@@]12C[C@H](O)[C@](O)(c3ccccc3)C[C@H]1CCc1cc(OCc3cccnc3C)ccc12`, the IC50 at Glucocorticoid receptor [1] is 1.5 nM; at Estrogen receptor it was over 10000 nM; at Glucocorticoid receptor [2], 38 nM; at Progesterone receptor, over 1000 nM; on Estrogen receptor beta, over 10000 nM; at Androgen receptor, over 10000 nM.
`CC#C[C@@]1(O)CC[C@@]2(CCO)c3ccc(O)cc3CC[C@@H]2C1` registered an IC50 at Glucocorticoid receptor [1] of over 1000 nM.
In the case of `CC[C@@]12CC[C@](O)(c3ccccc3)C[C@H]1CCc1cc(OCc3cccnc3C)ccc12`, the results for the half-inhibitory concentration (IC50) at Glucocorticoid receptor [1] and at Glucocorticoid receptor [2] were 6 nM and 1500 nM, respectively.
`CC#C[C@]1(O)C[C@H]2CCc3cc(O)ccc3[C@]2(CC)[C@H](O)C1`: the IC50 at Glucocorticoid receptor [1] was 360 nM; at Estrogen receptor it was over 10000 nM; on Estrogen receptor beta it was over 10000 nM; on Androgen receptor it was over 10000 nM.
`CC[C@@]12C[C@H](O)[C@H](c3ccccc3)C[C@H]1CCc1cc(O)ccc12`: the half-maximal inhibitory concentration (IC50) at Glucocorticoid receptor [1] worked out at 1.3 nM; at Glucocorticoid receptor [2], 1100 nM.
Regarding `CC#C[C@@]1(O)CC[C@@]2(CO)c3ccc(O)cc3CC[C@@H]2C1`, the half-maximal inhibitory concentration (IC50) on Glucocorticoid receptor [1] was over 1000 nM.
In the case of `CC#C[C@@]1(O)CC[C@@]2(CC)c3ccc(OCc4cccnc4C)cc3CC[C@@H]2C1`, the IC50 at Glucocorticoid receptor [1] was 2.3 nM; on Estrogen receptor, over 10000 nM; on Glucocorticoid receptor [2] it was 6.3 nM; at Estrogen receptor beta it was over 10000 nM; on Androgen receptor it was 880 nM.
Turning to `CC#C[C@]1(O)C[C@H]2CCc3cc(OCc4cccnc4C)ccc3[C@]2(CC)C[C@@H]1O`, the half-maximal inhibitory concentration (IC50) at Glucocorticoid receptor [1] is 3.3 nM; on Estrogen receptor it was over 10000 nM; on Glucocorticoid receptor [2], 15 nM; at Progesterone receptor, over 10000 nM; on Estrogen receptor beta it was over 10000 nM; on Androgen receptor it was over 10000 nM.
As for `CC#C[C@@]1(O)CC[C@@]2(CC)c3ccc(O)cc3CC[C@@H]2C1`, the concentration for half-maximal inhibition (IC50) on Glucocorticoid receptor [1] was 5.6 nM; on Estrogen receptor, 89 nM; on Glucocorticoid receptor [2], 14 nM; at Progesterone receptor, 2600 nM; at Estrogen receptor beta, 580 nM; at Androgen receptor, 420 nM.
Regarding `CC#C[C@@]1(O)CC[C@@]2(CCC)c3ccc(O)cc3CC[C@@H]2C1`, the half-maximal inhibitory concentration (IC50) on Glucocorticoid receptor [1] was 1.5 nM; on Glucocorticoid receptor [2], over 5000 nM.
